Laboratory results: article PMC3460372 (Organic letters, 2012)
Numbered stars: 1 amine (or outer) side, 2 acyl side, 3 side chain; on linkers, the order of the positions; unused ones are H or OH. Square brackets hold non-standard residues; d marks the D form. Peptide text beside a SMILES is read from it. * marks the point of attachment. Cinnamoyl(2-(1Z-pentenyl)) = CCC/C=C\c1ccccc1/C=C/C(=O)*; X1 = CN(/C(=C/c1ccc(O)cc1)C(=O)[*:2])[*:1]; aThr = C[C@H](O)[C@H](N)C(=O)O

Biological target: BmAsnRS (Brugia malayi asparaginyl-tRNA synthetase) (Brugia malayi, UniProt P10723)
Test: nonradioactive pretransfer editing assay, malachite green phosphate detection
Format: biochemical

BmAsnRS (Brugia malayi asparaginyl-tRNA synthetase), sequence (P10723 whole entry): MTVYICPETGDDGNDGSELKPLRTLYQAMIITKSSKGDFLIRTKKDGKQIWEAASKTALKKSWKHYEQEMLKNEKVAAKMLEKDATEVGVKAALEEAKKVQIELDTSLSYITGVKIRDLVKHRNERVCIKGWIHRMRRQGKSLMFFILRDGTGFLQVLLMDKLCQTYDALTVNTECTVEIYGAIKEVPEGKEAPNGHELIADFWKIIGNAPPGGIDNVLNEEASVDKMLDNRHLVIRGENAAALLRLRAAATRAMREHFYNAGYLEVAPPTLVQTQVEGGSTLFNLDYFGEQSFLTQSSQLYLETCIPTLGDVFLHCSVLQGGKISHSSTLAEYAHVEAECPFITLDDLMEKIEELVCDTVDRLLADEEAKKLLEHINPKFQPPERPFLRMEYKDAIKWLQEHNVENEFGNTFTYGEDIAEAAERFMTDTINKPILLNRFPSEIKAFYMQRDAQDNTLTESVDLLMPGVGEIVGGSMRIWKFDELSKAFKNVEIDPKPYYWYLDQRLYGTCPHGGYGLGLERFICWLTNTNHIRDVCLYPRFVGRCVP

Question: For CCC/C=C\c1ccccc1/C=C/C(=O)N[C@H](C(=O)N(C)/C(=C/c1ccc(O)cc1)C(=O)N[C@@H](CC(C)C)C(=O)N[C@H](Cc1ccccc1)C(=O)N[C@H](C(=O)O)[C@H](C)O)[C@@H](C)O [compound 3, WS9326D] ({Cinnamoyl(2-(1Z-pentenyl))}-T[X1]L[dF][aThr]-OH), which IC50 is on record?
Answer: ~50 µM

Question: With CCC/C=C\c1ccccc1/C=C/C(=O)N[C@@H](CO)C(=O)N(C)/C(=C/c1ccc(O)cc1)C(=O)N[C@@H](CC(C)C)C(=O)N[C@H](Cc1ccccc1)C(=O)N[C@H](C(=O)O)[C@H](C)O [compound 4, WS9326E] ({Cinnamoyl(2-(1Z-pentenyl))}-S[X1]L[dF][aThr]-OH) as the compound, how does the IC50 read?
Answer: ~75 µM
